Laboratory results: publication PMC5585036 (Molecular pharmaceutics, 2017)
Each block holds one molecule with its values, some of them ahead of it.

Columns and labels:
[1] = biological target: T1, Monocarboxylate transporter 6 (MCT6) (Homo sapiens, UniProt O15375); format: cell-based
T1 sequence (O15375 1-505): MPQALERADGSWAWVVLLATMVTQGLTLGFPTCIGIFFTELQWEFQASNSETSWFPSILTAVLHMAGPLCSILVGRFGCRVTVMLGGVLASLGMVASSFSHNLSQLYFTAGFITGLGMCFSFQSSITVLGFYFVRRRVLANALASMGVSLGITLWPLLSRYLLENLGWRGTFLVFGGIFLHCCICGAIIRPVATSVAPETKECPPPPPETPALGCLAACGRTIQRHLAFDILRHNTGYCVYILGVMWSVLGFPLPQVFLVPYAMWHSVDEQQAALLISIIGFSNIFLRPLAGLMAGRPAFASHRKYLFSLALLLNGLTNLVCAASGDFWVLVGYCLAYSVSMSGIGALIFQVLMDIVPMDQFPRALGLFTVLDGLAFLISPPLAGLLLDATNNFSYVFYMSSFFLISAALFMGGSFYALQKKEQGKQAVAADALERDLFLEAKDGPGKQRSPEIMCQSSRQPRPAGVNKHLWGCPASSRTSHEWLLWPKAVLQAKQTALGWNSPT

[2] = biological target: T1, Monocarboxylate transporter 6 (MCT6); test: inhibition of [3H]bumetanide uptake in MCT6-expressing oocytes; format: cell-based
[3] = substrate: CCCCNc1cc(C(=O)O)cc(S(N)(=O)=O)c1Oc1ccccc1; test: radiolabeled uptake in MCT6-expressing versus water-injected oocytes; format: cell-based, Homo sapiens

Molecule: O=c1c(O)c(-c2ccc(O)cc2O)oc2cc(O)cc(O)c12 [morin]
- IC50 [1]: 33.1 ± 3.29 µM

- Ki [2]: 22.8 ± 6.95 µM
Molecule: O=C(CCc1ccc(O)cc1)c1c(O)cc(O)cc1O [phloretin]

Molecule: O=c1c(O)c(-c2ccc(O)c(O)c2)oc2cc(O)cc(O)c12 [quercetin]
- IC50 [1]: 25.3 ± 3.36 µM

B1: Monocarboxylate transporter 6 (MCT6) (Homo sapiens) (protein)
chain: T1 sequence (O15375 1-505)
- Km [3]: 60.5 ± 14.1 µM
